# Publication PMC10447463, “Data-mining unveils structure–property–activity correlation of viral infectivity enhancing self-assembling peptides” (Nature Communications, 2023)
# Like-named read-outs stand apart in the source and are kept apart here.
# Assays:
# [1] = type: physicochemical; settings: for ThT Cat. / ThT-Fluorescence (categorical): ThT-active if fluorescence at least twice the control
# Method in brief: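 Fibrils (1 mg/mL solution) were mixed with 50 µM ThT in PBS for 15 min at RT, and fluorescence was read at λex 440/λem 488 nm against a PBS blank, as a triplicate mean ± SD. Zeta potential came from electrophoretic mobility (Smoluchowski) after 1 d aggregation at 1 mg/mL in PBS pH 7.4, diluted into 1 mM KCl.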
# [2] = Turbidity, derived count rate of scattered light; type: physicochemical; settings: log10 of derived count rate of scattered light, Figure 7B
# [3] = ThT fluorescence relative to blank (42.1851851851852 a.u.)
# [4] = relative to blank 42.1851851851852 a.u.
# [5] = ThT fluorescence relative to blank, blank = 42.1851851851852
substance,measurement,setting,value
KLKLTLT,ThT Cat. / ThT-Fluorescence (categorical),[1],"1 (ThT. Cat is 1, if Rel. ThT >2)"
CKFKFPF,ThT Cat. / ThT-Fluorescence (categorical),[1],0 (ThT-inactive (N-Fold <2))
RIRFHIW,ThT Cat. / ThT-Fluorescence (categorical),[1],0 (ThT-inactive (N-Fold <2))
RVRVTVT,ThT Cat. / ThT-Fluorescence (categorical),[1],0 (ThT-inactive (N-Fold <2))
CEFEFQF [KB12],Tht rel to blank (42.1851851851852),[1]; [3],2.788
KIKIWIW,ThT Cat. / ThT-Fluorescence (categorical),[1],0 (ThT-inactive (N-Fold <2))
KFKFQFNMW [BL5 / KB13],Tht category (> 1.5 to blank = +),[1]; category 1/0,0 (ThT-inactive (N-Fold <2))
same,Tht rel to blank (42.1851851851852),[1]; [4],1.342
RVHLGLG,ThT Cat. / ThT-Fluorescence (categorical),[1],0 (ThT-inactive (N-Fold <2))
IFQINS [reference compound],Log10 Count Rate,[2],1.56
same,ThT Cat. / ThT-Fluorescence (categorical),[1],"1 (ThT. Cat is 1, if Rel. ThT >2)"
NMWQKAKAQA [JG10],Tht category (> 1.5 to blank = +),[1]; FigS26,1 (Tht category (> 1.5 to blank = +))
NMWQKFKFQF [JG11],Tht category (> 1.5 to blank = +),[1]; FigS26,0 (Tht category (> 1.5 to blank = +))
KIKIQIMWNQ [VH15],Tht category (> 1.5 to blank = +),[1]; FigS26,0 (Tht category (> 1.5 to blank = +))
KIKIQIAMWQ [JR4],Tht category (> 1.5 to blank = +),[1]; FigS26,1 (Tht category (> 1.5 to blank = +))
KFKFQFN [BL7],Tht category (> 1.5 to blank = +),[1]; category 1/0,0 (ThT-inactive (N-Fold <2))
same,Tht rel to blank (42.1851851851852),[1]; [4],1.056
CKIWIQIY,ThT Cat. / ThT-Fluorescence (categorical),[1],"1 (ThT. Cat is 1, if Rel. ThT >2)"
KIKIQIN [JGB3],Tht category (> 1.5 to blank = +),[1]; category 1/0,0 (ThT-inactive (N-Fold <2))
same,Tht rel to blank (42.1851851851852),[1]; [4],1.784
KIKQIIN [JGA3],Tht rel to blank (42.1851851851852),[1]; [3],1.148
KIKIQINMWWQ [VH11],Tht category (> 1.5 to blank = +),[1]; category 1/0,0 (ThT-inactive (N-Fold <2))
same,Tht rel to blank (42.1851851851852),[1]; [4],1.314
KVKVQVVV [TG8],Tht rel to blank (42.1851851851852),[1]; [3],0.8863
same,Tht rel to blank (42.1851851851852),[1]; [5],0.8863
same,Tht category (> 1.5 to blank = +),[1]; category 1/0,0 (ThT-inactive (N-Fold <2))
KAKLTCT,ThT Cat. / ThT-Fluorescence (categorical),[1],0 (ThT-inactive (N-Fold <2))
KIKIQIW [TM69],Tht rel to blank (42.1851851851852),[1]; [5],2.047
same,Tht category (> 1.5 to blank = +),[1]; category 1/0,"1 (ThT. Cat is 1, if Rel. ThT >2)"
same,Tht rel to blank (42.1851851851852),[1]; [4],2.047
KIKIQINAWQ [JR3-II],Tht category (> 1.5 to blank = +),[1]; FigS26,1 (Tht category (> 1.5 to blank = +))
KIKIQINMAQ [JR2],Tht category (> 1.5 to blank = +),[1]; FigS26,0 (Tht category (> 1.5 to blank = +))
CRFRFHFH,ThT Cat. / ThT-Fluorescence (categorical),[1],0 (ThT-inactive (N-Fold <2))
KAKQAANMWQ [JG6],Tht rel to blank (42.1851851851852),[1]; [5],1.208
same,Tht category (> 1.5 to blank = +),[1]; category 1/0,0 (ThT-inactive (N-Fold <2))
KFQFNMW,ThT Cat. / ThT-Fluorescence (categorical),[1],0 (ThT-inactive (N-Fold <2))
KYKYQY [KB1],Tht rel to blank (42.1851851851852),[1]; [5],6.106
same,Tht category (> 1.5 to blank = +),[1]; category 1/0,"1 (ThT. Cat is 1, if Rel. ThT >2)"
KIKIQII [TG1 / (KM4)],Tht rel to blank (42.1851851851852),[1]; [3],1.392
same,Tht rel to blank (42.1851851851852),[1]; [5],1.392
same,Tht category (> 1.5 to blank = +),[1]; category 1/0,0 (ThT-inactive (N-Fold <2))
same,Tht rel to blank (42.1851851851852),[1]; [4],1.392
KFKQFFINMWQ [VH14],Tht rel to blank (42.1851851851852),[1]; [5],1.085
same,Tht category (> 1.5 to blank = +),[1]; category 1/0,0 (ThT-inactive (N-Fold <2))
RFWFWFW,ThT Cat. / ThT-Fluorescence (categorical),[1],"1 (ThT. Cat is 1, if Rel. ThT >2)"
KIKIQINMWA [JR1],Tht category (> 1.5 to blank = +),[1]; FigS26,0 (Tht category (> 1.5 to blank = +))
HHHHKAKAKAKAWWWW [TM8],Tht rel to blank (42.1851851851852),[1]; [5],3.672
same,Tht category (> 1.5 to blank = +),[1]; category 1/0,"1 (ThT. Cat is 1, if Rel. ThT >2)"
CRLRVGVS,ThT Cat. / ThT-Fluorescence (categorical),[1],0 (ThT-inactive (N-Fold <2))
KIKIQIII [TG7],Tht rel to blank (42.1851851851852),[1]; [3],2.287
same,Tht rel to blank (42.1851851851852),[1]; [5],2.287
same,Tht category (> 1.5 to blank = +),[1]; category 1/0,"1 (ThT. Cat is 1, if Rel. ThT >2)"
same,Tht rel to blank (42.1851851851852),[1]; [4],2.287
NKGAII [reference compound],Log10 Count Rate,[2],1.831
same,ThT Cat. / ThT-Fluorescence (categorical),[1],0 (ThT-inactive (N-Fold <2))
NMWQKIKIQI [JG9],Tht category (> 1.5 to blank = +),[1]; FigS26,1 (Tht category (> 1.5 to blank = +))
MKVIFLKDVKG [reference compound],Log10 Count Rate,[2],2.137
same,ThT Cat. / ThT-Fluorescence (categorical),[1],0 (ThT-inactive (N-Fold <2))
KVKVKVQV [JG14 / TG14],Tht rel to blank (42.1851851851852),[1]; [5],5.801
same,Tht category (> 1.5 to blank = +),[1]; category 1/0,"1 (ThT. Cat is 1, if Rel. ThT >2)"
KIKIKIKI [TM13],Tht category (> 1.5 to blank = +),[1]; category 1/0,"1 (ThT. Cat is 1, if Rel. ThT >2)"
same,Tht rel to blank (42.1851851851852),[1]; [4],3.325
IIIK [reference compound],Log10 Count Rate,[2],1.413
same,ThT Cat. / ThT-Fluorescence (categorical),[1],0 (ThT-inactive (N-Fold <2))
CRLSLSLS,ThT Cat. / ThT-Fluorescence (categorical),[1],0 (ThT-inactive (N-Fold <2))
KYFIL [reference compound],Log10 Count Rate,[2],4.277
same,ThT Cat. / ThT-Fluorescence (categorical),[1],0 (ThT-inactive (N-Fold <2))
KVKVQVV [TG2],Tht rel to blank (42.1851851851852),[1]; [3],1.263
same,Tht rel to blank (42.1851851851852),[1]; [5],1.263
same,Tht category (> 1.5 to blank = +),[1]; category 1/0,0 (ThT-inactive (N-Fold <2))
KIKIQIRGD [MG6],Tht category (> 1.5 to blank = +),[1]; FigS26,1 (Tht category (> 1.5 to blank = +))
NMWQKIKQII [JG8],Tht category (> 1.5 to blank = +),[1]; FigS26,0 (Tht category (> 1.5 to blank = +))
KLKLKLQL [TG16],Tht rel to blank (42.1851851851852),[1]; [5],1.572
same,Tht category (> 1.5 to blank = +),[1]; category 1/0,0 (ThT-inactive (N-Fold <2))
CKIKIWIW,ThT Cat. / ThT-Fluorescence (categorical),[1],"1 (ThT. Cat is 1, if Rel. ThT >2)"
RINFWFW,ThT Cat. / ThT-Fluorescence (categorical),[1],"1 (ThT. Cat is 1, if Rel. ThT >2)"
RATVYV [reference compound],Log10 Count Rate,[2],1.621
same,ThT Cat. / ThT-Fluorescence (categorical),[1],0 (ThT-inactive (N-Fold <2))
KIKIQINMWWWQ [VH12],Tht category (> 1.5 to blank = +),[1]; category 1/0,0 (ThT-inactive (N-Fold <2))
same,Tht rel to blank (42.1851851851852),[1]; [4],1.301
IKFLSVN [reference compound],Log10 Count Rate,[2],2.136
same,ThT Cat. / ThT-Fluorescence (categorical),[1],0 (ThT-inactive (N-Fold <2))
KLVFFAK [reference compound],Log10 Count Rate,[2],1.159
same,ThT Cat. / ThT-Fluorescence (categorical),[1],0 (ThT-inactive (N-Fold <2))
VHDCVNITIK [reference compound],Log10 Count Rate,[2],4.098
same,ThT Cat. / ThT-Fluorescence (categorical),[1],"1 (ThT. Cat is 1, if Rel. ThT >2)"
KIKIQINMWQRGD [VH17-II],Tht category (> 1.5 to blank = +),[1]; FigS26,0 (Tht category (> 1.5 to blank = +))
same,Tht category (> 1.5 to blank = +),[1]; category 1/0,0 (ThT-inactive (N-Fold <2))
same,Tht rel to blank (42.1851851851852),[1]; [4],1.548
GYVIIK [reference compound],Log10 Count Rate,[2],1.476
same,ThT Cat. / ThT-Fluorescence (categorical),[1],0 (ThT-inactive (N-Fold <2))
IIIQGK [reference compound],Log10 Count Rate,[2],0.9808
same,ThT Cat. / ThT-Fluorescence (categorical),[1],0 (ThT-inactive (N-Fold <2))
KIWIWIW,ThT Cat. / ThT-Fluorescence (categorical),[1],"1 (ThT. Cat is 1, if Rel. ThT >2)"
KAQCTLP,ThT Cat. / ThT-Fluorescence (categorical),[1],0 (ThT-inactive (N-Fold <2))
KIKIQIMQWN [VH16],Tht category (> 1.5 to blank = +),[1]; FigS26,0 (Tht category (> 1.5 to blank = +))
RQGNINIVA [reference compound],Log10 Count Rate,[2],1.551
same,ThT Cat. / ThT-Fluorescence (categorical),[1],"1 (ThT. Cat is 1, if Rel. ThT >2)"
KFKFQFF [TG6],Tht rel to blank (42.1851851851852),[1]; [3],2.58
same,Tht rel to blank (42.1851851851852),[1]; [5],2.58
same,Tht category (> 1.5 to blank = +),[1]; category 1/0,"1 (ThT. Cat is 1, if Rel. ThT >2)"
same,Tht rel to blank (42.1851851851852),[1]; [4],2.58
LASLIYR [reference compound],Log10 Count Rate,[2],2.0205
same,ThT Cat. / ThT-Fluorescence (categorical),[1],0 (ThT-inactive (N-Fold <2))
